# Data taken from paper PMC8434007 (Molecules, 2021).
# Structures can show the parent of a compound that is named as a salt. Where two headings read alike, the source gives them in different places.
# What was measured:
# Assay in all cases: biochemical
# [1] = target: T1, horse serum butyrylcholinesterase (eqBChE) (Equus caballus, UniProt P81908); conditions: for inhibition at 10 µM: read-out: inhibition percentage ± SEM, BChE
# T1 construct: AChE (from electric eel) and BChE (from horse serum); from tissue; host or cells: horse serum
# bovine thrombin = target: T2, bovine thrombin (Bos taurus, UniProt P00735); conditions: for inhibition at 50 µM: read-out: inhibition percentage ± SEM, thr
# T2 construct: purchased Sigma-Aldrich (Milan, Italy)
# [2] = target: T3, electric eel acetylcholinesterase (eeAChE) (Electrophorus electricus, UniProt O42275); assay type: biochemical; conditions: for inhibition at 10 µM: read-out: inhibition percentage ± SEM, AChE
# T3 construct: AChE (from electric eel) and BChE (from horse serum); from tissue
# human recombinant fXa = target: T4, human recombinant fXa (Homo sapiens, UniProt P00742); conditions: for inhibition at 50 µM: read-out: inhibition percentage ± SEM, fXa
# T4 construct: purchased Chromogenix AB-Instrumentation Laboratories (Milan, Italy)
# [3] = horse serum BChE, Cheng–Prousoff from IC50, read-out: Ki BChE
# [4] = bovine serum thrombin, Cheng–Prousoff from IC50, pH 8, read-out: Ki thr
# [5] = electric eel AChE, Cheng–Prousoff from IC50, read-out: Ki AChE
# [6] = human recombinant fXa, Cheng–Prousoff from IC50, pH 8, read-out: Ki fXa
# T3 sequence (O42275 24-633): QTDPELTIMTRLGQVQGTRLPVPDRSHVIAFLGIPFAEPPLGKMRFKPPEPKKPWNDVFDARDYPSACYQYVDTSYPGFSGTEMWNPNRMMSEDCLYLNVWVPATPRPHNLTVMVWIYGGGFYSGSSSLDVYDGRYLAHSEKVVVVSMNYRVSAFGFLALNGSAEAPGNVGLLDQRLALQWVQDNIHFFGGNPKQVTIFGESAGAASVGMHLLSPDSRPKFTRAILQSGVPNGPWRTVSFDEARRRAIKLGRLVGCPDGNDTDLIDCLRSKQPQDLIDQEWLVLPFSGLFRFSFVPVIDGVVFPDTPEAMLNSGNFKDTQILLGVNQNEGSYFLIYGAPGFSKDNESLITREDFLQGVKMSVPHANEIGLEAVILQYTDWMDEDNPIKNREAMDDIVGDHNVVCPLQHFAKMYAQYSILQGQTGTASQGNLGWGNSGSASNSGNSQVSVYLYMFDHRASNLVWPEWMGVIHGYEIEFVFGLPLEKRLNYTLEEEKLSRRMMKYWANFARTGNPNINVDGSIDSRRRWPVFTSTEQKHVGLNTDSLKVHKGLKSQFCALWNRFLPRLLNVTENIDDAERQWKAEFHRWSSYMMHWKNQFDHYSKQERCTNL
# T4 sequence (P00742 235-488 limits assumed): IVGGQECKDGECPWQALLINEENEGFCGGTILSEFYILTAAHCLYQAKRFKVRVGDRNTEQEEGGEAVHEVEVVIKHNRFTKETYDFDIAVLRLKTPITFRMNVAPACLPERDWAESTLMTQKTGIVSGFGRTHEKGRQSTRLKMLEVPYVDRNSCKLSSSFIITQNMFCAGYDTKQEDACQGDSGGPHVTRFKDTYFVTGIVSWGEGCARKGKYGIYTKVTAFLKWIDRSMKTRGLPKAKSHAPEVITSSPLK
# T4 sequence (P00742 41-179 partner limits assumed): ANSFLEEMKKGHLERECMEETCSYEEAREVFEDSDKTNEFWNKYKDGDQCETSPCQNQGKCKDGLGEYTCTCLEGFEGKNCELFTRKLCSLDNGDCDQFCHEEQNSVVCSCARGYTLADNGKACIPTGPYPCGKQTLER
# T1 sequence (P81908 whole entry): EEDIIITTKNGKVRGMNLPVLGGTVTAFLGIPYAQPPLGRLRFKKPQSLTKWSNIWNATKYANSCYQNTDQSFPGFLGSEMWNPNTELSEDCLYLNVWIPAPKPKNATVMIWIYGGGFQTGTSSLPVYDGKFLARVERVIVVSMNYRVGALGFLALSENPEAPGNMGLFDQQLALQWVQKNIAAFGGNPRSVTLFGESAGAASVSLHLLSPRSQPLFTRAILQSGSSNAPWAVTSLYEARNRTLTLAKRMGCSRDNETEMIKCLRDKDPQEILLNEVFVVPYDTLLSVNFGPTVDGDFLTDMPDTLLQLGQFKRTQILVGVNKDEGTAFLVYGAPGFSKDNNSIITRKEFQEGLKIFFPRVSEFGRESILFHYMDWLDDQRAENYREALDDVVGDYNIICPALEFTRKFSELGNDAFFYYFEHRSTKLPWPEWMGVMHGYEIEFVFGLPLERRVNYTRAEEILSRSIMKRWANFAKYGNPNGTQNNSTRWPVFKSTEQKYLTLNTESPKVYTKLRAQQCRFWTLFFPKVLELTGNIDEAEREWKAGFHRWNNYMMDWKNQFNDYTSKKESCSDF
Compound,"Ki [1, 3] [nM]",Ki (bovine thrombin; [4]) [nM],"Ki [2, 5] [nM]",Ki (human recombinant fXa; [6]) [nM],other results
"O=C(Nc1ccccc1OCc1ccc(F)cc1)C1CCN(C2CCCC2)CC1 [Compound 19, N-(2-(4-fluorobenzyloxy)phenyl)-1-cyclopentylpiperidine-4-carboxamide]",215,–,–,–,inhibition at 50 µM (bovine thrombin; bovine serum thrombin): 12%; inhibition at 10 µM [2]: 35%; inhibition at 50 µM (human recombinant fXa; human recombinant fXa): 28%
"O=C(Nc1ccc(F)cc1)Nc1cccc(NC(=O)C2CCN(c3ccncc3)CC2)c1 [Compound 12, 1-(3-(1-(pyridin-4-yl)piperidine-4-carboxamido)phenyl)-3-(4-fluorophenyl)urea]",–,26700,735,16500,inhibition at 10 µM ([1]; horse serum BChE): 15%
O=C(Nc1cccc(COc2ccc(F)cc2)c1)C1CCN(c2ccncc2)CC1 [Compound 3],2600,26800,165,774,–
"O=C(Nc1cccc(OCc2ccc(F)cc2)c1)C1CCN(C2CCCC2)CC1 [Compound 15, N-(3-(4-fluorobenzyloxy)phenyl)-1-cyclopentylpiperidine-4-carboxamide]",115,30000,–,–,inhibition at 10 µM [2]: 27%; inhibition at 50 µM (human recombinant fXa; human recombinant fXa): 40%
N=C(N)N1CCC(C(=O)Nc2cccc(OCc3cc(-c4ccc(Cl)s4)on3)c2)CC1 [Compound 31],1620,–,–,–,inhibition at 10 µM [2]: 31%; Ki (human recombinant fXa): 15 nM
N=C(N)N1CCC(C(=O)Nc2cccc(OCc3cc(-c4cccc(Cl)c4)on3)c2)CC1 [Compound 29],1120,15300,10000,388,–
"CC(C)N1CCC(C(=O)Nc2ccc(OCc3ccc(F)cc3)cc2)CC1 [Compound 16, N-(4-(4-fluorobenzyloxy)phenyl)-1-isopropylpiperidine-4-carboxamide]",2360,–,6250,–,inhibition at 50 µM (bovine thrombin; bovine serum thrombin): 11%; inhibition at 50 µM (human recombinant fXa; human recombinant fXa): 5%
N=C(N)N1CCC(C(=O)Nc2cccc(OCc3cc(-c4ccc(Cl)cc4)on3)c2)CC1 [Compound 25],7670,630,11000,26,–
O=C(Nc1cccc(OCCc2cccc(F)c2)c1)C1CCN(c2ccncc2)CC1 [Compound 6],1750,2140,369,488,–
"O=C(NCc1ccc(F)cc1)c1cccc(NC(=O)C2CCN(c3ccncc3)CC2)c1 [Compound 10, N-(3-(4-fluorobenzylcarbamoyl)phenyl)-1-(pyridin-4-yl)piperidine-4-carboxamide]",370,10600,255,2400,–
N=C(N)N1CCC(C(=O)Nc2ccccc2OCc2cc(-c3ccc(Cl)cc3)on2)CC1 [Compound 27],10000,21200,–,60,inhibition at 10 µM [2]: 16%
N-(2-(3-chlorobenzyloxy)phenyl)-1-isopropylpiperidine-4-carboxamide [Compound 28],4100,23000,7000,867,–
O=C(Nc1ccc(OCc2cccc(F)c2)cc1)C1CCN(c2ccncc2)CC1 [Compound 4],425,6700,3880,25100,–
O=C(Nc1cccc(OCCc2ccc(F)cc2)c1)C1CCN(c2ccncc2)CC1 [Compound 7],5630,4460,650,133,–
"CC(C)N1CCC(C(=O)Nc2cccc(OCc3ccc(F)cc3)c2)CC1 [Compound 14, N-(3-(4-fluorobenzyloxy)phenyl)-1-isopropylpiperidine-4-carboxamide]",130,–,15500,–,"Ki ([1]; eqBChE 0.18 U/mL, butyrylthiocholine iodide 50-300 µM, inhibitor 0-1 µM, x-axis intercept, read-out: Ki eqBChE from replot of Lineweaver–Burk slopes versus [I]): 104 nM; inhibition at 50 µM (bovine thrombin; bovine serum thrombin): 5%; inhibition at 50 µM (human recombinant fXa; human recombinant fXa): 28%"
O=C(Nc1cccc(OCc2cccc(F)c2)c1)C1CCN(c2ccncc2)CC1 [Compound 1],6950,6,58,5600,"mechanism of eeAChE inhibition ([2]; Lineweaver–Burk, changed both Vmax and KM): noncompetitive/mixed-type inhibition; Ki ([2]; read-out: Ki eeAChE from replot of Lineweaver–Burk slopes versus inhibitor concentration): 56 nM; experimental ΔΔG score ([2]; thr vs AChE inhibition, one unit higher than predicted by docking): about 1.3 kcal/mol"

Compound,"Ki [1, 3] [nM]",Ki (bovine thrombin; [4]) [nM],"Ki [2, 5] [nM]",Ki (human recombinant fXa; [6]) [nM],other results
"CC(C)N1CCC(C(=O)Nc2ccccc2OCc2ccc(Cl)cc2)CC1 [Compound 20, N-(2-(4-chlorobenzyloxy)phenyl)-1-isopropylpiperidine-4-carboxamide]",105,–,–,484,inhibition at 50 µM (bovine thrombin; bovine serum thrombin): 20%; inhibition at 10 µM [2]: 11%
O=C(Nc1cccc(OCc2ccc(F)cc2)c1)C1CCN(c2ccncc2)CC1 [Compound 2],1210,210,240,1100,–
O=C(Nc1cccc(CCc2ccc(F)cc2)c1)C1CCN(c2ccncc2)CC1 [Compound 8],8200,3720,495,37700,–
"O=C(Nc1ccc(OCc2ccc(F)cc2)cc1)C1CCN(C2CCCC2)CC1 [Compound 17, N-(4-(4-fluorobenzyloxy)phenyl)-1-cyclopentylpiperidine-4-carboxamide]",255,–,3520,–,inhibition at 50 µM (bovine thrombin; bovine serum thrombin): 25%; inhibition at 50 µM (human recombinant fXa; human recombinant fXa): 28%
CC(C)N1CCC(C(=O)Nc2cccc(OCc3cc(-c4ccc(Cl)s4)on3)c2)CC1 [Compound 30],2130,16000,5100,90,–
N=C(N)N1CCC(C(=O)Nc2cccc(OCc3ccc(F)cc3)c2)CC1 [Compound 13],260,20000,10000,33000,–
CC(C)N1CCC(C(=O)Nc2cccc(OCc3ccc(-c4ccc(Cl)cc4)cc3)c2)CC1 [Compound 22],–,–,3330,165,inhibition at 10 µM ([1]; horse serum BChE): 35%; inhibition at 50 µM (bovine thrombin; bovine serum thrombin): 5%
CC(C)N1CCC(C(=O)Nc2ccccc2OCc2cc(-c3ccc(Cl)cc3)on2)CC1 [Compound 26],1110,13700,11500,7,–
N=C(N)N1CCC(C(=O)Nc2cccc(OCc3ccc(-c4ccc(Cl)cc4)cc3)c2)CC1 [Compound 23],90,2040,5800,–,"Ki (human recombinant fXa; human fXa, read-out: Ki fXa): 31 ± 1 nM"
"O=C(Nc1ccc(F)cc1)c1cccc(NC(=O)C2CCN(c3ccncc3)CC2)c1 [Compound 9, N-(3-(4-fluorophenylcarbamoyl)phenyl)-1-(pyridin-4-yl)piperidine-4-carboxamide]",8250,4470,270,4040,–
"N=C(N)N1CCC(C(=O)Nc2ccccc2OCc2ccc(Cl)cc2)CC1 [Compound 21, N-(2-(4-Chlorobenzyloxy)phenyl)-1-amidinopiperidine-4-carboxamide hydrochloride]",8200,25900,–,60600,inhibition at 10 µM [2]: 38%
O=C(Nc1ccccc1OCc1cccc(F)c1)C1CCN(c2ccncc2)CC1 [Compound 5],655,–,–,–,inhibition at 50 µM (bovine thrombin; bovine serum thrombin): 10%; inhibition at 10 µM [2]: 12%; inhibition at 50 µM (human recombinant fXa; human recombinant fXa): 2%
"CC(C)N1CCC(C(=O)Nc2ccccc2OCc2ccc(F)cc2)CC1 [Compound 18, N-(2-(4-fluorobenzyloxy)phenyl)-1-isopropylpiperidine-4-carboxamide]",378,5350,–,10500,inhibition at 10 µM [2]: 15%
"[H]/N=C(/N)c1ccc(NCc2nc3cc(C(=O)N(CCC(=O)O)c4ccccn4)ccc3n2C)cc1 [dabigatran, reference compound]",–,–,–,–,inhibition at 10 µM ([1]; horse serum BChE): 36%; Ki (bovine thrombin): 4.2 nM
CC(C)N1CCC(C(=O)Nc2cccc(OCc3cc(-c4ccc(Cl)cc4)on3)c2)CC1 [Compound 24],3060,–,6300,218,inhibition at 50 µM (bovine thrombin; bovine serum thrombin): 15%
